Assay [1] addresses T1, CXCR3-B (Homo sapiens, UniProt P49682).
T1 construct: The coding regions of human CXCR3-A or CXCR3-B cDNA; expressed in transfected cells; host or cells: HEK-293, stably transfected (HEK-CXCR3-B)
T1 sequence (P49682 1-415 isoform P49682-2): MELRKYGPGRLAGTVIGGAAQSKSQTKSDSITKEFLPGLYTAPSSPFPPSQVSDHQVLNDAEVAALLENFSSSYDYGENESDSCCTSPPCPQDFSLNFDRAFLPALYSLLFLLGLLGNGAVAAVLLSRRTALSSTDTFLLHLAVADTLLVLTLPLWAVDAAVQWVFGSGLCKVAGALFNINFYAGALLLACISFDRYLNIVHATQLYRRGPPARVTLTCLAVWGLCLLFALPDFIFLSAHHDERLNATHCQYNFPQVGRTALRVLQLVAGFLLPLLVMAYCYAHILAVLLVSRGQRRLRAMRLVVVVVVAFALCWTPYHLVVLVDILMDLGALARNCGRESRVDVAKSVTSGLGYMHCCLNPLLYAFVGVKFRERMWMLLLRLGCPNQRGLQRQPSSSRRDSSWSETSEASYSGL
The assay can be described thus: Plasmon waveguide resonance (PWR) on HEK-CXCR3-B cell membrane fragments. Format: binding. The conditions noted are these: for Kd: HEK-CXCR3-B cell fragments, incremental ligand addition, hyperbolic fit. An excerpt:
(§1) Ligand-mediated activation of CXCR3 was studied by PWR and flow cytometry measuring calcium flux. The former technique allows to determine the affinity, ligand-binding kinetics and anisotropy of the events occurring at the sensor surface. This technique gives the possibility of following resonance with two types of polarizations, p- and s-polarizations. PWR can be applied both to artificial lipid model systems with reconstituted receptors or to cell fragments[27]–[34]. In the present study, cell membrane fragments from cells expressing the CXCR3-A and CXCR3-B receptors were immobilized on the PWR sensor which is composed of a prism coated with a silver layer and overcoated with a silica layer. The prism is pre-treated with polylysine to promote cell adhesion by electrostatic interactions between the negative charges provided by the cell surface glycosaminoglycans (GAGs) and the positive charges of polylysine. The quality of HEK-CTRL, HEK-CXCR3-A and HEK-CXCR3-B membrane fragments was verified by confocal microscopy by visualizing the GFP-tagged receptors using glass slides of the same material (silica) than the outer layer of the sensor surface (Fig. 1A). The presence of fluorescent membrane fragments on the glass slide of few μm were evidenced in agreement with reported literature.
(§2) In contrast, membrane fragments of cells expressing either CXCR3-A or CXCR3-B responded to ligand stimulation in a saturable manner (Fig. 2; Fig. S3). […] PWR is sensitive to both, mass and structural changes. Inasmuch as the ligand is far too small to contribute to a mass change by itself, the PWR spectral changes observed correspond to ligand-induced receptor conformational changes (upon formation of the R/L complex). From the saturable and hyperbolic binding response, a dissociation constant was determined. The cell fragments are quite stable after sensor immobilization as no alterations in the spectra were observed after repetitive and extensive washing with buffer. Furthermore, lipids and receptors are oriented with their long axis along the p-polarization axis as shown by the anisotropic response. Thus, spectral modifications observed in p-polarization reflect changes along the receptor main axis, while modifications in s-polarization reflect changes along the receptor minor axis (Fig. S2). In HEK-CXCR3-A cells, agonist binding led to an increase in the resonance minimum position for both p- and s-polarization. A positive shift in the resonance angle is correlated with an increase in the refractive index due to a mass increase in the system. Since the ligand, by itself, is too small to be able to produce such spectral changes, the response can only be attributed to conformational change in the receptor which is reflected by an increase in mass density. […] The negative shift, while of considerably smaller magnitude, results from a slight decrease in the mass density in the system and can be attributed to a conformational change leading to a looser and less ordered arrangement of the TM helices accompanied by a slight decrease in length. Thus, agonist-mediated CXCR3 activation leads to opposite conformational changes depending on the CXCR3 isoform.
(§3) PWR measurements were performed in a homemade instrument equiped with a He-Ne laser, with a fixed wavelenght in the visible region (λ = 632 nm; Melles Griot), a rotating table allowing the incident angle to be changed by steps ≤1 mdeg (thus resolution being on that order; Newport) and a photodiode detector (Hamamatsu) to measure the reflected light as a function of the incident angle. The polarization angle of the incident beam is placed at 45° allowing both p- and s-polarized spectra to be obtained within the same angular scan. The sensor consisted in a BK-7 prism coated with silver and silica (to support waveguide modes)[36]. All measurements were performed at 22 °C in a temperature controlled room. More details about this technology can be found. […]

For assay [2], the target named is T1, CXCR3-B. The assay can be described thus: Calcium flux by flow cytometry in HEK-CXCR3-B cells. Type of assay: cell-based. How it is done: (§4) Human Embryonic Kidney (HEK-293) cell lines, were regularly tested for contamination and were all mycoplasma-free. Cells were cultured in Dulbecco’s Modified Eagle’s medium (DMEM, Thermo Fisher Scientific) supplemented with 10% Fetal Bovine Serum (FBS), 5% antibiotics (Penicillin and […]) and 5% L-glutamine. All cells were grown at 37 °C, 5% CO2 and split at 70–90% of confluence with 0.25% Trypsin. Cell transfection was performed using Effecten kit (Qiagen) according to the manufacter’s instruction. HEK-CTRL (HEK-293 stably transfected with empty pEGFPN2 vectors) HEK-CXCR3-A cells and HEK-CXCR3-B (HEK-293 stably transfected with pEGFPN2 + CXCR3-A or pEGFPN2 + CXCR3-B vectors, respectivly) were grown in the presence of Zeocin (200 µg/ml). For inhibition experiments, cells were pretreated 1 h with the CXCR3 antagonist SCH546738 at dose-dependant concentration. SCH546738 is a small molecular lipophilic molecule, with the chemical formula: C23H31Cl2N7O. […] For this reason a concentration range from 0.5 to 2.2 nM has been used.
(§5) Intracellular calcium concentration was measured using Calcium Assay Kit (BD 640176) according to the manufacter’s procedure on an AccuriC6 flow cytometer equipped with BD AccuriC6 software (BD, San Jose, CA). Cells were placed in suspension and 1X Dye loading solution was added for 20 min at 37 °C. Calcium concentration was then recorded for 5 min on the AccuriC6 flow cytometer. CXCR3 agonist stimulation was performed after 2 min of recording and intracellular calcium increase was visualized. Calcium concentration after stimulation was normalized by calcium concentration before stimulation. Cells without 1X dye loading solution were used as a negative control in order to quantify the background level.

A further assay relates to HEK-CTRL cell fragments. The assay can be described thus: Plasmon waveguide resonance (PWR) on HEK-CTRL cell fragments (empty GFP vector control). Format: binding, human.
Text: as §2
as §3, with “found. The protocol for adhesion of cell fragments on silica (glass slides or PWR sensor) was adapted from reported work from Vogel and collaborators.” for “found.”

Assay [3] concerns the target T2, CXCR3-A (Homo sapiens, UniProt P49682).
T2 construct: The coding regions of human CXCR3-A or CXCR3-B cDNA; expressed in transfected cells; host or cells: HEK-293, stably transfected (HEK-CXCR3-A)
T2 sequence (P49682 1-368): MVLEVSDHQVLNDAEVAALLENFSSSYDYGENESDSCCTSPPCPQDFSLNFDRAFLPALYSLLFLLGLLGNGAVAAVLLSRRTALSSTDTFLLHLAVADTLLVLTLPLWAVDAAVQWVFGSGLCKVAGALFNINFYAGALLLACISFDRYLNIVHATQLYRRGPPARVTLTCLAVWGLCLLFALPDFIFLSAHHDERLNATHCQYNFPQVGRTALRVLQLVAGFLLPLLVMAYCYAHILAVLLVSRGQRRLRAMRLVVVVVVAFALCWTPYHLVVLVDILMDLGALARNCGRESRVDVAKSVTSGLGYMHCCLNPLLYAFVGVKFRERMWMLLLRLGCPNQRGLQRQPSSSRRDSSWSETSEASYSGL
The assay can be described thus: Plasmon waveguide resonance (PWR) on HEK-CXCR3-A cell membrane fragments. Format: binding. The settings on record: for Kd: HEK-CXCR3-A cell fragments, incremental ligand addition, hyperbolic fit; for Difference in KD between CXCR3-A and CXCR3-B (higher affinity for CXCR3-A): KD CXCR3-B versus KD CXCR3-A.
Text: as §1, §2, §3

Assay [4] has as its target T2, CXCR3-A. The assay can be described thus: Calcium flux by flow cytometry in HEK-CXCR3-A cells. Format: cell-based. How it is done: as §4, §5
A general note: A change in cytosolic calcium serves as a functional read-out for many receptors and channels.

A further assay relates to CXCR3. The conditions noted are these: cited from earlier work.

Molecules are shown by their SMILES. Values joined by “and” are separate entries in the source; they are usually repeats but may differ in a detail not shown here. Equal values may be shown once.

As a reminder, the IC50 is the point on the concentration scale where inhibition reaches its midpoint. Consider `NC(N)=NCCC[C@H](NC(=O)[C@@H]1Cc2ccccc2CN1C(=O)CCC(=O)c1ccccc1)C(=O)NCC1CCCCC1` [PS372424], for which the “Shift in resonance minimum position, P-pol” value on CXCR3-B [1] (HEK-CXCR3-B, p-polarization, incremental addition to saturation) is -5 +/- 1 mdeg; in the assay with HEK-CTRL cell fragments (HEK-CTRL, p-polarization), 0 +/- 1 mdeg; on CXCR3-A [3] (HEK-CXCR3-A, p-polarization, incremental addition to saturation), 16 +/- 12 mdeg. Besides, the “Shift in resonance minimum position, S-pol” value at CXCR3-B [1] (HEK-CXCR3-B, s-polarization, incremental addition to saturation) is recorded as -4 +/- 1 mdeg; with HEK-CTRL cell fragments (HEK-CTRL, s-polarization), 0 +/- 1 mdeg; on CXCR3-A [3] (HEK-CXCR3-A, s-polarization, incremental addition to saturation), 4 +/- 1 mdeg. Moreover, the Kd at CXCR3-B [1] (PWR) was determined as 450 nM; on CXCR3-A [3] (PWR), 40 nM. In addition, the “Intracellular calcium flux after agonist stimulation” value at CXCR3-B [2] (HEK-CXCR3-B cells) and at CXCR3-A [4] (HEK-CXCR3-A cells) was “increase intracellular calcium flux” throughout. The KD entry in the assay with HEK-CTRL cell fragments (PWR, HEK-CTRL cell fragments) is given as “No binding”. Further, on CXCR3-A [3] (PWR), the “Difference in KD between CXCR3-A and CXCR3-B (higher affinity for CXCR3-A)” value is reported as 10 fold. For the same compound, in the assay with CXCR3 (isoforms not distinguished, read-out: IC50 reported for binding to CXCR3), the IC50 was 42 nM.

As to `CC[C@H]1CN(c2nc(N)c(C(N)=O)nc2Cl)CCN1C1CCN(Cc2ccc(Cl)cc2)CC1` [SCH546738], the Kd on CXCR3-B [1] (PWR) is 1.5 nM; on CXCR3-A [3] (PWR), 0.5 nM; at CXCR3 (other reports and methods, read-out: Affinity to CXCR3 reported), 0.8 to 2.2 nM and 0.4 to 2.2 nM. In addition, the “Agonist binding after SCH546738 at 1 nM” value on CXCR3-B [1] (PWR, HEK-CXCR3-B, SCH546738 1 nM) is listed as “binding was still observed”; on CXCR3-A [3] (PWR, HEK-CXCR3-A, SCH546738 1 nM), “totally abrogated”. Moreover, the “Agonist binding after SCH546738 at saturating concentration” value at CXCR3-B [1] (PWR, HEK-CXCR3-B, SCH546738 2.2 nM, 1 h) was “completely abolished”; at CXCR3-A [3] (PWR, HEK-CXCR3-A, SCH546738 2.2 nM, 1 h), “completely abolished”. Also, the “Receptor activation by agonist (calcium flux) after SCH546738 pretreatment” value at CXCR3-B [2] (HEK-CXCR3-B cells pretreated with SCH546738) and on CXCR3-A [4] (HEK-CXCR3-A cells pretreated with SCH546738) was “no longer activated” in each case. For the same compound, at CXCR3-B [2] (at 1 nM), the “Inhibition of CXCR3-B activation (calcium flux)” value worked out at 25%. The “PWR response of control cell fragments (non-specific binding)” value in the assay with HEK-CTRL cell fragments (HEK-CTRL cell fragments) is “did not respond”. For the same compound, on CXCR3-A [3] (PWR), the “Difference in KD between CXCR3-A and CXCR3-B (higher affinity for CXCR3-A)” value amounted to 3 fold. In addition, the “Inhibition of CXCR3-A activation (calcium flux)” value at CXCR3-A [4] (at 1 nM) is listed as “more than 70%”.

(Values after PMC5587768, “Ligand activation induces different conformational changes in CXCR3 receptor isoforms as evidenced by plasmon waveguide resonance (PWR)” (Scientific Reports, 2017).)
